Key:
Test in all cases: KINOMEscan competition binding
Conditions in all cases: compound 10.0 µM
HIPK2 (human) = HIPK2 (human) (UniProt Q9H2X6)
PDGFRB (human) = PDGFRB (human) (UniProt P09619)
TIE1 (human) = TIE1 (human) (UniProt P35590)
RPS6KA6 KD1 (human) = RPS6KA6 KD1 (human) (UniProt Q9UK32)
EPHB4 (human) = EPHB4 (human) (UniProt P54760)
RPS6KB1 (human) = RPS6KB1 (human) (UniProt P23443)
[1] = test system: FGFR3 (human), P22607 [G697C]
RPS6KA2 KD2 (human) = RPS6KA2 KD2 (human) (UniProt Q15349)
CAMK2G (human) = CAMK2G (human) (UniProt Q13555)
SLK (human) = SLK (human) (UniProt Q9H2G2)
CDK13 (human) = CDK13 (human) (UniProt Q14004)
RPS6KA1 KD1 (human) = RPS6KA1 KD1 (human) (UniProt Q15418)
MST1R (human) = MST1R (human) (UniProt Q04912)
Chain of MST1R (human) (Q04912 whole entry, looked up): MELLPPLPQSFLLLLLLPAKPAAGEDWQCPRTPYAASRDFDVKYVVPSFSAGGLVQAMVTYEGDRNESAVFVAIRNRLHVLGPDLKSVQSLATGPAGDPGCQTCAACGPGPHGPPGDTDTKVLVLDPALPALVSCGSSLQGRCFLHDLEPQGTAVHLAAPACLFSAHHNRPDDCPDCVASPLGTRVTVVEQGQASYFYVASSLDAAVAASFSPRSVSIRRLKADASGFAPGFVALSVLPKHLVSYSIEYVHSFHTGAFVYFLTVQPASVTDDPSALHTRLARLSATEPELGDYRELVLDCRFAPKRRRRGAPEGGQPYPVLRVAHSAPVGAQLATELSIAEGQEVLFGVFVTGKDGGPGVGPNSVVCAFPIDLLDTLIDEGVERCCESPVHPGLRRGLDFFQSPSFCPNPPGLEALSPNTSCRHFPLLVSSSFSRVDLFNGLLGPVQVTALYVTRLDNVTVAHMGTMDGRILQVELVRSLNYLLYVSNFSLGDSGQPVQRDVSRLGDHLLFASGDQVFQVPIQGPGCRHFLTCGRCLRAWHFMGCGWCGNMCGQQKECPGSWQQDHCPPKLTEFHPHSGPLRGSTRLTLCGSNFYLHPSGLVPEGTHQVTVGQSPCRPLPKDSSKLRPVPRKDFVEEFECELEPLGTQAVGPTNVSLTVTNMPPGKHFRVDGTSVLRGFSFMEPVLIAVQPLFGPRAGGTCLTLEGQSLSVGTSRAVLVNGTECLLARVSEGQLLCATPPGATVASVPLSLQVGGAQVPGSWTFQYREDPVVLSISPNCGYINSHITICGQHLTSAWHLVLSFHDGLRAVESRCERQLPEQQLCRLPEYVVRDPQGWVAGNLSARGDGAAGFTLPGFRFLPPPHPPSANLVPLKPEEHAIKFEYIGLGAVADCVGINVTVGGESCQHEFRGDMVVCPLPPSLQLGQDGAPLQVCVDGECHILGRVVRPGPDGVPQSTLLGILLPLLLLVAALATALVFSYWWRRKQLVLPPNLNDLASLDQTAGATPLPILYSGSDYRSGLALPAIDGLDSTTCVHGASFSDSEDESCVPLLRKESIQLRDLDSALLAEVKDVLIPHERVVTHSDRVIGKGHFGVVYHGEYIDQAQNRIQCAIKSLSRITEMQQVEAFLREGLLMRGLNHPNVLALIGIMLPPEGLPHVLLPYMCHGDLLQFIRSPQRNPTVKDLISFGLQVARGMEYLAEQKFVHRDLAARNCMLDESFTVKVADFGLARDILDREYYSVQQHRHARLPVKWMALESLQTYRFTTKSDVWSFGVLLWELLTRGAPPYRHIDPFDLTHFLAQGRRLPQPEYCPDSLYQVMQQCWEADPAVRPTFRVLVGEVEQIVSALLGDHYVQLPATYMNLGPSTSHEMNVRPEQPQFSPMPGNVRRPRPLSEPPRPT

LATS2 (human) = LATS2 (human) (UniProt Q9NRM7)
PIK3CB (human) = PIK3CB (human) (UniProt P42338)
EPHA5 (human) = EPHA5 (human) (UniProt P54756)
STK38L (human) = STK38L (human) (UniProt Q9Y2H1)
RPS6KA5 KD1 (human) = RPS6KA5 KD1 (human) (UniProt O75582)
EPHA7 (human) = EPHA7 (human) (UniProt Q15375)
Chain of EPHA7 (human) (Q15375 whole entry, looked up): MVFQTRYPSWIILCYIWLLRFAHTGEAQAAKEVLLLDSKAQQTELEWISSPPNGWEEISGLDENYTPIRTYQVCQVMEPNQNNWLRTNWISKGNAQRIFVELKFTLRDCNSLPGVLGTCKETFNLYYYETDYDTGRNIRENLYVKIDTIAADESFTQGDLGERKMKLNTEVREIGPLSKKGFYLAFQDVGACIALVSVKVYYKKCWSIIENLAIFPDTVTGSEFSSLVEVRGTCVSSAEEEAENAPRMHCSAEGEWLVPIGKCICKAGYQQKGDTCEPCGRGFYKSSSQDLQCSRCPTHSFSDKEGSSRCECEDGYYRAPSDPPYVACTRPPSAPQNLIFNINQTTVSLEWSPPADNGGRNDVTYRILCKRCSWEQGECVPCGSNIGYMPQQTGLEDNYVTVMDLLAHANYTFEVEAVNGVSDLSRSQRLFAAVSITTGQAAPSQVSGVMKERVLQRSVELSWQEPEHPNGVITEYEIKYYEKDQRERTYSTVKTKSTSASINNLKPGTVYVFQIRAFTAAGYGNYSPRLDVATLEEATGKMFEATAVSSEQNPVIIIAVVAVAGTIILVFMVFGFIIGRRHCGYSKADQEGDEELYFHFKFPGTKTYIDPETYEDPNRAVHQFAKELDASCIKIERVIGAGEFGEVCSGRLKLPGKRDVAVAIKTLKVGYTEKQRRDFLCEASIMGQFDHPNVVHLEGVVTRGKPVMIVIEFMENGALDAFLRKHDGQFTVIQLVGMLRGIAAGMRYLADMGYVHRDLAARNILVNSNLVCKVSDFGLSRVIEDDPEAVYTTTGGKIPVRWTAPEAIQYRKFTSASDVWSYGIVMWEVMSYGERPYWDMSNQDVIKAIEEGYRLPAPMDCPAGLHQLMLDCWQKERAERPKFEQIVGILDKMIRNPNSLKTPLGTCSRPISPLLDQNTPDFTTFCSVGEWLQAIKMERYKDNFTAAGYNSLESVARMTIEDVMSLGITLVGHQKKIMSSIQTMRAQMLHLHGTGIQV

PRPF4B (human) = PRPF4B (human) (UniProt Q13523)
SRPK1 (human) = SRPK1 (human) (UniProt Q96SB4)
AKT1 (human) = AKT1 (human) (UniProt P31749)
ERN1 (human) = ERN1 (human) (UniProt O75460)
Chain of ERN1 (human) (O75460 whole entry, looked up): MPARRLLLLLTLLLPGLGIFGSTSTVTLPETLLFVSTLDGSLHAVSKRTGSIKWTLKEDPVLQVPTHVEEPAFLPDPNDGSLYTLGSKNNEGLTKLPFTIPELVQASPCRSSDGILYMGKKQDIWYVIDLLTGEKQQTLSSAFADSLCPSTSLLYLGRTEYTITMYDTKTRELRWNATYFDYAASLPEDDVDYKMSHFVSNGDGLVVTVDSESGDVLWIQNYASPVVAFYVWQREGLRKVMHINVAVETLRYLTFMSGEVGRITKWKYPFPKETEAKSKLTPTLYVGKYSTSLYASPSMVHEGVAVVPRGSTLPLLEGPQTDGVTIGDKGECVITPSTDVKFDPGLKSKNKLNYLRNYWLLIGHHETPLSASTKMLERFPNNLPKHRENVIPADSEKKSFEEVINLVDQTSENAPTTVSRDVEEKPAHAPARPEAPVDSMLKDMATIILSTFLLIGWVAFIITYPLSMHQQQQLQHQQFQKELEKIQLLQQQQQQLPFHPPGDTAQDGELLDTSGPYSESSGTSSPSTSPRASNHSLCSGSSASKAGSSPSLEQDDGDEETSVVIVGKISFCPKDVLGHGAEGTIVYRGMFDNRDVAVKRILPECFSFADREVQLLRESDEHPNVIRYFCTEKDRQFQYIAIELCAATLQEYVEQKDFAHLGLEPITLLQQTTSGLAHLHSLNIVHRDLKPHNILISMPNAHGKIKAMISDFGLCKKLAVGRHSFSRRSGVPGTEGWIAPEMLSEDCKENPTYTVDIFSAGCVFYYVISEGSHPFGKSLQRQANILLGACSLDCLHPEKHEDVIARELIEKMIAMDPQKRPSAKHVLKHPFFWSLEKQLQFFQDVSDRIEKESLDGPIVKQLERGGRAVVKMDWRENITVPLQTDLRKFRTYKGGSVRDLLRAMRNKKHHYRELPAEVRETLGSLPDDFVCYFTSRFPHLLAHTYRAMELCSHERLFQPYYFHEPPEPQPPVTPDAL

NTRK3 (human) = NTRK3 (human) (UniProt Q16288)
MAPK1 (human) = MAPK1 (human) (UniProt P28482)
STK3 (human) = STK3 (human) (UniProt Q13188)
MAPK9 (human) = MAPK9 (human) (UniProt P45984)
MAP3K1 (human) = MAP3K1 (human) (UniProt Q13233)
BRSK2 (human) = BRSK2 (human) (UniProt Q8IWQ3)
MLTK (human) = MLTK (human) (UniProt Q9NYL2)
PAK4 (human) = PAK4 (human) (UniProt O96013)
NEK11 (human) = NEK11 (human) (UniProt Q8NG66)
CSNK1E (human) = CSNK1E (human) (UniProt P49674)
CAMK2D (human) = CAMK2D (human) (UniProt Q13557)
MAP4K3 (human) = MAP4K3 (human) (UniProt Q8IVH8)
HIPK1 (human) = HIPK1 (human) (UniProt Q86Z02)
BRSK1 (human) = BRSK1 (human) (UniProt Q8TDC3)
Chain of BRSK1 (human) (Q8TDC3 whole entry, looked up): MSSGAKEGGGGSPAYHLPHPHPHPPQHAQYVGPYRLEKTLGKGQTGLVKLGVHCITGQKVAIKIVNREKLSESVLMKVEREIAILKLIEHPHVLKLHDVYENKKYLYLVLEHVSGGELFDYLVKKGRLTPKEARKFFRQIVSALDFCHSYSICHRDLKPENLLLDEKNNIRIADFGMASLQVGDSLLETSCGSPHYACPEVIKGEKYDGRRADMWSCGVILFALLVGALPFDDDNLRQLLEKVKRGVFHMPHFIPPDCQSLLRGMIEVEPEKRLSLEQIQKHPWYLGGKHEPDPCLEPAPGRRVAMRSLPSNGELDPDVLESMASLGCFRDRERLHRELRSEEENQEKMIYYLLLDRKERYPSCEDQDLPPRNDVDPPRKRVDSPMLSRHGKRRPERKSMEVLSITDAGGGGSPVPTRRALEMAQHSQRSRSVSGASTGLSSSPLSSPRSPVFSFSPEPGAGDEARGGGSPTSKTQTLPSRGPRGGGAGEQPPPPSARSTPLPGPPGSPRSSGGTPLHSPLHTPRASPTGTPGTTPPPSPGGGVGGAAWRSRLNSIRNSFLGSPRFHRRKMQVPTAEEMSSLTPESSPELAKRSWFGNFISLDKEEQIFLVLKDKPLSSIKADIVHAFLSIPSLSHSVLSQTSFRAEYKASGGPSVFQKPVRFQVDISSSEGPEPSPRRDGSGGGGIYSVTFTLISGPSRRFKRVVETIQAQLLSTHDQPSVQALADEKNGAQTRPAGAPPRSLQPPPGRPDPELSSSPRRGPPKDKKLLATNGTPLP

PRKAA2 (human) = PRKAA2 (human) (UniProt P54646)
IRAK4 (human) = IRAK4 (human) (UniProt Q9NWZ3)
PLK3 (human) = PLK3 (human) (UniProt Q9H4B4)
Chain of PLK3 (human) (Q9H4B4 whole entry, looked up): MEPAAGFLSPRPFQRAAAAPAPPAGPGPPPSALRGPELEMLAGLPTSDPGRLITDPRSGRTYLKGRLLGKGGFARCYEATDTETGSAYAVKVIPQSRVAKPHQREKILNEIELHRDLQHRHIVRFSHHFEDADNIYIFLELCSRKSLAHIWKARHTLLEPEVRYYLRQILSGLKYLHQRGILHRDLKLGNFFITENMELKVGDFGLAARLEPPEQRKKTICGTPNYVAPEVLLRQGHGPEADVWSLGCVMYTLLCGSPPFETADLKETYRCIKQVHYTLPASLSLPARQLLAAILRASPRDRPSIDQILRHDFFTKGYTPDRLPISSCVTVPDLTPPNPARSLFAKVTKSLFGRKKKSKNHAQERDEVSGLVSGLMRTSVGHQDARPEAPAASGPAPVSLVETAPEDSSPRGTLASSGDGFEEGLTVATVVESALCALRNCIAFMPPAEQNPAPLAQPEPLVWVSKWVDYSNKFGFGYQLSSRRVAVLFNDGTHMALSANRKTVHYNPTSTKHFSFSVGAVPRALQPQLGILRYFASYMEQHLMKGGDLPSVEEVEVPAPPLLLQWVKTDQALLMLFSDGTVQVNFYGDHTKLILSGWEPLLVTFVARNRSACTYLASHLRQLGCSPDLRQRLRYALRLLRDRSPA

PRKCD (human) = PRKCD (human) (UniProt Q05655)

With `COC(=O)Nc1ccc(-c2nc(N3CCOCC3)c3cnn(C4CCN(C(=O)OC)CC4)c3n2)cc1` the kinase still bound, per cent of control (HIPK2 (human)) was 65%, the kinase still bound, per cent of control (PDGFRB (human)) was 100% and the kinase still bound, per cent of control (TIE1 (human)) was 99%. The kinase still bound, per cent of control (RPS6KA6 KD1 (human)) was 86%, the kinase still bound, per cent of control (EPHB4 (human)) was 94% and the kinase still bound, per cent of control (RPS6KB1 (human)) was 86%. It also gave a kinase still bound, per cent of control [1] of 100%, a kinase still bound, per cent of control (RPS6KA2 KD2 (human)) of 100% and a kinase still bound, per cent of control (CAMK2G (human)) of 93%. For the same molecule, the kinase still bound, per cent of control (SLK (human)) was 70%, the per cent of control (CDK13 (human)) was 100% and the kinase still bound, per cent of control (RPS6KA1 KD1 (human)) was 100%. The kinase still bound, per cent of control (MST1R (human)) was 82%, the kinase still bound, per cent of control (LATS2 (human)) was 86% and the kinase still bound, per cent of control (PIK3CB (human)) was 42%. For the same molecule, the kinase still bound, per cent of control (EPHA5 (human)) was 100%, the kinase still bound, per cent of control (STK38L (human)) was 97% and the kinase still bound, per cent of control (RPS6KA5 KD1 (human)) was 100%. It also gave a kinase still bound, per cent of control (EPHA7 (human)) of 94%, a kinase still bound, per cent of control (PRPF4B (human)) of 100% and a kinase still bound, per cent of control (SRPK1 (human)) of 100%. For the same molecule, the kinase still bound, per cent of control (AKT1 (human)) was 82%, the kinase still bound, per cent of control (ERN1 (human)) was 100% and the kinase still bound, per cent of control (NTRK3 (human)) was 100%. It also gave a kinase still bound, per cent of control (MAPK1 (human)) of 100%, a kinase still bound, per cent of control (STK3 (human)) of 85% and a kinase still bound, per cent of control (MAPK9 (human)) of 100%. It also gave a kinase still bound, per cent of control (MAP3K1 (human)) of 94%, a kinase still bound, per cent of control (BRSK2 (human)) of 100% and a kinase still bound, per cent of control (MLTK (human)) of 97%. The kinase still bound, per cent of control (PAK4 (human)) was 100%, the kinase still bound, per cent of control (NEK11 (human)) was 85% and the kinase still bound, per cent of control (CSNK1E (human)) was 72%. The kinase still bound, per cent of control (CAMK2D (human)) was 100%, the kinase still bound, per cent of control (MAP4K3 (human)) was 74% and the kinase still bound, per cent of control (HIPK1 (human)) was 57%. It also gave a kinase still bound, per cent of control (BRSK1 (human)) of 95%, a kinase still bound, per cent of control (PRKAA2 (human)) of 100% and a kinase still bound, per cent of control (IRAK4 (human)) of 82%. For the same molecule, the kinase still bound, per cent of control (PLK3 (human)) was 93% and the kinase still bound, per cent of control (PRKCD (human)) was 99%.

For `CC(C)n1nc(-c2cc3cc(O)ccc3[nH]2)c2c(N)ncnc21`, the kinase still bound, per cent of control (HIPK2 (human)) was 0.9%, the kinase still bound, per cent of control (PDGFRB (human)) was 0% and the kinase still bound, per cent of control (TIE1 (human)) was 49%. It also gave a kinase still bound, per cent of control (RPS6KA6 KD1 (human)) of 4.6%, a kinase still bound, per cent of control (RPS6KB1 (human)) of 57% and a kinase still bound, per cent of control [1] of 11%. It also gave a kinase still bound, per cent of control (RPS6KA2 KD2 (human)) of 62%, a kinase still bound, per cent of control (CAMK2G (human)) of 56% and a kinase still bound, per cent of control (SLK (human)) of 0.2%. It also gave a per cent of control (CDK13 (human)) of 100%, a kinase still bound, per cent of control (RPS6KA1 KD1 (human)) of 32% and a kinase still bound, per cent of control (MST1R (human)) of 89%. The kinase still bound, per cent of control (LATS2 (human)) was 41%, the kinase still bound, per cent of control (PIK3CB (human)) was 0% and the kinase still bound, per cent of control (EPHA5 (human)) was 55%. For the same molecule, the kinase still bound, per cent of control (STK38L (human)) was 63%, the kinase still bound, per cent of control (RPS6KA5 KD1 (human)) was 100% and the kinase still bound, per cent of control (EPHA7 (human)) was 61%. It also gave a kinase still bound, per cent of control (PRPF4B (human)) of 90%, a kinase still bound, per cent of control (SRPK1 (human)) of 100% and a kinase still bound, per cent of control (AKT1 (human)) of 100%. It also gave a kinase still bound, per cent of control (ERN1 (human)) of 31%, a kinase still bound, per cent of control (NTRK3 (human)) of 49% and a kinase still bound, per cent of control (MAPK1 (human)) of 100%. It also gave a kinase still bound, per cent of control (MAP3K1 (human)) of 45%, a kinase still bound, per cent of control (BRSK2 (human)) of 0.95% and a kinase still bound, per cent of control (MLTK (human)) of 29%. It also gave a kinase still bound, per cent of control (PAK4 (human)) of 13%, a kinase still bound, per cent of control (NEK11 (human)) of 74% and a kinase still bound, per cent of control (CSNK1E (human)) of 0.1%. It also gave a kinase still bound, per cent of control (CAMK2D (human)) of 69%, a kinase still bound, per cent of control (MAP4K3 (human)) of 52% and a kinase still bound, per cent of control (HIPK1 (human)) of 1.9%. It also gave a kinase still bound, per cent of control (BRSK1 (human)) of 1.6%, a kinase still bound, per cent of control (PRKAA2 (human)) of 67% and a kinase still bound, per cent of control (IRAK4 (human)) of 44%. It also gave a kinase still bound, per cent of control (PLK3 (human)) of 33% and a kinase still bound, per cent of control (PRKCD (human)) of 39%.

In the case of `CCC(=O)N1CCN(c2ccc(-n3c(=O)ccc4cnc5ccc(-c6cnc7ccccc7c6)cc5c43)cc2C(F)(F)F)CC1`, the kinase still bound, per cent of control (HIPK2 (human)) is reported as 58%, the kinase still bound, per cent of control (PDGFRB (human)) is reported as 24% and the kinase still bound, per cent of control (TIE1 (human)) is reported as 100%. The kinase still bound, per cent of control (RPS6KA6 KD1 (human)) was 66%, the kinase still bound, per cent of control (EPHB4 (human)) was 85% and the kinase still bound, per cent of control (RPS6KA2 KD2 (human)) was 85%. The kinase still bound, per cent of control (CAMK2G (human)) was 79%, the kinase still bound, per cent of control (SLK (human)) was 94% and the per cent of control (CDK13 (human)) was 80%. For the same molecule, the kinase still bound, per cent of control (RPS6KA1 KD1 (human)) was 68%, the kinase still bound, per cent of control (MST1R (human)) was 55% and the kinase still bound, per cent of control (LATS2 (human)) was 100%. The kinase still bound, per cent of control (PIK3CB (human)) was 65%, the kinase still bound, per cent of control (EPHA5 (human)) was 100% and the kinase still bound, per cent of control (STK38L (human)) was 94%. The kinase still bound, per cent of control (RPS6KA5 KD1 (human)) was 100%, the kinase still bound, per cent of control (EPHA7 (human)) was 98% and the kinase still bound, per cent of control (PRPF4B (human)) was 100%. It also gave a kinase still bound, per cent of control (SRPK1 (human)) of 100%, a kinase still bound, per cent of control (AKT1 (human)) of 91% and a kinase still bound, per cent of control (ERN1 (human)) of 100%. For the same molecule, the kinase still bound, per cent of control (NTRK3 (human)) was 100%, the kinase still bound, per cent of control (MAPK1 (human)) was 100% and the kinase still bound, per cent of control (STK3 (human)) was 24%. For the same molecule, the kinase still bound, per cent of control (MAPK9 (human)) was 40%, the kinase still bound, per cent of control (MAP3K1 (human)) was 92% and the kinase still bound, per cent of control (BRSK2 (human)) was 76%. For the same molecule, the kinase still bound, per cent of control (MLTK (human)) was 22%, the kinase still bound, per cent of control (PAK4 (human)) was 100% and the kinase still bound, per cent of control (NEK11 (human)) was 65%. For the same molecule, the kinase still bound, per cent of control (CSNK1E (human)) was 59%, the kinase still bound, per cent of control (CAMK2D (human)) was 72% and the kinase still bound, per cent of control (MAP4K3 (human)) was 1.9%. It also gave a kinase still bound, per cent of control (HIPK1 (human)) of 63%, a kinase still bound, per cent of control (BRSK1 (human)) of 78% and a kinase still bound, per cent of control (PRKAA2 (human)) of 74%. For the same molecule, the kinase still bound, per cent of control (IRAK4 (human)) was 90%, the kinase still bound, per cent of control (PLK3 (human)) was 87% and the kinase still bound, per cent of control (PRKCD (human)) was 82%.
